Measurements taken from article PMC9918900, “New Succinimide–Thiazolidinedione Hybrids as Multitarget Antidiabetic Agents: Design, Synthesis, Bioevaluation, and Molecular Modelling Studies” (Molecules, 2023).

Key:
[1] = tested on: streptozotocin-induced diabetic rats; experiment: in vivo antidiabetic activity, fasting plasma glucose level; parameters: species or system Wistar rats; details: STZ-induced diabetic rats, 0.5 mg/kg, 28th day
Protocol: (§1) The antidiabetic activity of the synthesized compound 10d was evaluated using a streptozotocin-induced diabetic rats model.
(§2) Male Wistar rats weighing 150 to 230 gm were used for the study which were housed in polyacrylic cages (no more than six animals per cage) with dimensions of 38 × 23 × 10 cm and maintained under standard laboratory conditions with a dark/light cycle of 14 h of dark and 10 h of light at a temperature of 25 °C. The animals were provided with a standard diet (dry pellet) and water ad libitum. Before the start of the experimental procedures, the rats were acclimatized to laboratory conditions for 10 days. All the experiments were approved and performed as per the guidelines of the Departmental Research Ethics Committee under letter No. DREC/050 [49].
(§3) Non-insulin-dependent diabetes mellitus was induced in fasted rats weighing 150–230 gm using a single dose of streptozotocin (STZ) at a dose of 60 mg/kg intraperitoneally after 15 min of the administration of nicotinamide at a 120 mg/kg dose i.p. Nicotinamide was prepared in normal saline while in citrate buffer (pH 4.5), STZ was prepared. After the induction of diabetes, the increase in the plasma glucose level was measured at 72 h and then measured on the 7th day to confirm hyperglycemia. For the diagnosis of diabetes, the threshold value of the fasting plasma glucose level was considered to be more than 126 mg/dl. For the study, only the animals with permanent NIIDM were utilized.
The animals were classified into 5 groups with 6 animals in each group (n = 6). […] The fasting glucose concentration was measured on the 0, 7th, 14th, and 28th day of the administration of the extract. During the experimental tenure, the weights of the rats were determined daily and the mean change was recorded.

[2] = tested on: streptozotocin-induced diabetic rats; experiment: effect on serum lipid profile of diabetic animals; assay type: in vivo, Wistar rats; details: compared to diabetic control group
Protocol: as §1, §2, §3
(§4) The animals were classified into 5 groups with 6 animals in each group (n = 6). Group I comprised of normal control rats which were daily administered drinking water only; group II served as diabetic control rats (disease group); group III served as the positive control and were administered 0.5 mg/kg of the standard drug glibenclamide; and group IV and V served as the test group rats and were administered the test compound 10d at 10 mg/kg and 20 mg/kg, respectively, for twenty-eight days. The fasting glucose concentration was measured on the 0, 7th, 14th, and 28th day of the administration of the extract. During the experimental tenure, the weights of the rats were determined daily and the mean change was recorded.
(§5) The animals were euthanized (sacrificed) via cervical dislocation on the 28th day to observe the biochemical parameters. The parameters studied were triglyceride (TGL), cholesterol, low-density lipoprotein, and high-density lipoprotein (LDL and HDL). The Minias Globe Diagnostic kits were used for cholesterol and TGL. Semi-autoanalyzers were used for the analysis. The serum samples from the rats were also checked for alanine aminotransferase (ALT), aspartate aminotransferase (AST), lactate dehydrogenase (LDH), serum alkaline phosphatase (ALP), and creatinine and urea levels utilizing commercially available kits of Crest Biosystems. The statistical analysis was also performed as per the previous procedure.

[3] = tested on: streptozotocin-induced diabetic rats; experiment: effect on body weight; assay type: in vivo, Wistar rats; details: glibenclamide group, 0.5 mg/kg
Protocol: as §1, §2, §3, §4

[4] = tested on: streptozotocin-induced diabetic rats; experiment: liver and renal serum biomarkers; assay type: in vivo, Wistar rats; details: 0.5 mg/kg, 28th day
Protocol: as §3, §4, §5

With `COc1ccc(Cl)cc1C(=O)NCCc1ccc(S(=O)(=O)NC(=O)NC2CCCCC2)cc1` [Glibenclamide, glibenclamide, reference compound] the blood glucose level [1] was 72.44 ± 3.58 mg/dL, the HDL level [2] was “greater than before” and the LDL in serum [2] was “significant decline”. For the same molecule, the “total cholesterol level in serum” value [2] was “significant decline”, the triglyceride in serum [2] was “significant decline” and the “Change in Body Weight, After Induction” value [3] was 160.52 ± 2.23 gm. The “Change in Body Weight, Before Induction” value [3] was 180.66 ± 1.67 ^ns gm, the “Change in Body Weight, After Treatment” value ([3]; 28 days) was 176.90 ± 4.45 gm and the ALP [4] was 124.42 ± 2.35 U/L. The ALT [4] was 76.23 ± 2.13 U/L, the AST [4] was 80.36 ± 2.12 U/L and the Creatinine [4] was 0.44 ± 0.04 ^ns mg/dl. It also gave an LDH [4] of 826.21 ± 5.60 U/L and a Urea [4] of 42.45 ± 2.21 mg/dL.
